According to ChEMBL document CHEMBL1201862, “PubChem BioAssay data set” (2004):
The source made the active and inactive calls.

How the values were obtained:
[1] = molecular target: T1, Ubiquitin-conjugating enzyme E2 N (Homo sapiens, UniProt P61088); assay type: functional;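 also: Dose-response confirmation in a TR-FRET assay detecting UBC13-driven polyubiquitin chain formation, inhibition measured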
T1 sequence (P61088 whole entry): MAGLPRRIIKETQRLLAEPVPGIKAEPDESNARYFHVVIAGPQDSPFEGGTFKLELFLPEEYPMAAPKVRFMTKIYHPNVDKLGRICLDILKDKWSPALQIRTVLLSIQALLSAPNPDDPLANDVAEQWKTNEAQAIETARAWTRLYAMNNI

A-375 = test: MITF: Counter assay: A375 proliferation Measured in Cell-Based System Using Plate Reader - 2084-03_Inhibitor_Dose_DryPowder_Activity. [Related pubchem assays (depositor defined):AID488944]; assay type: functional; conditions: Homo sapiens
[2] = molecular target: T2, DNA repair protein RAD52 homolog (Homo sapiens, UniProt P43351); assay type: functional, biochemical
T2 sequence (P43351 whole entry): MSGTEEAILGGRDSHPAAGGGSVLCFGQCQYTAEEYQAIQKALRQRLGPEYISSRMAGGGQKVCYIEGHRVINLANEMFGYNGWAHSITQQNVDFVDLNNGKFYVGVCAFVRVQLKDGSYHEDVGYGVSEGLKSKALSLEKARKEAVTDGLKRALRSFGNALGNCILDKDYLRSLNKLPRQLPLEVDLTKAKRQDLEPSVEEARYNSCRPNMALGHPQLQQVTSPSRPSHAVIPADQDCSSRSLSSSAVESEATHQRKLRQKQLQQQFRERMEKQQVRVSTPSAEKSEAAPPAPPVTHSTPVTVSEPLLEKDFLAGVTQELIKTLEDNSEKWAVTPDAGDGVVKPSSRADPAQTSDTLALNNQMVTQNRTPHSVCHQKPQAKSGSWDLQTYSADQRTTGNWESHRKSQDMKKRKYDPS

[3] = molecular target: T3, Microphthalmia-associated transcription factor (Homo sapiens, UniProt O75030); test: reducers of TRPM1 reporter luminescence, concentration series – cell-based, SK-MEL-5, cherry-picked, set 3, MITF inhibitor project, dose response (AID 493073); assay type: functional;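 also: SK-MEL-5 melanoma cells with luciferase driven by the MITF target TRPM1 promoter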
T3 sequence (O75030 whole entry): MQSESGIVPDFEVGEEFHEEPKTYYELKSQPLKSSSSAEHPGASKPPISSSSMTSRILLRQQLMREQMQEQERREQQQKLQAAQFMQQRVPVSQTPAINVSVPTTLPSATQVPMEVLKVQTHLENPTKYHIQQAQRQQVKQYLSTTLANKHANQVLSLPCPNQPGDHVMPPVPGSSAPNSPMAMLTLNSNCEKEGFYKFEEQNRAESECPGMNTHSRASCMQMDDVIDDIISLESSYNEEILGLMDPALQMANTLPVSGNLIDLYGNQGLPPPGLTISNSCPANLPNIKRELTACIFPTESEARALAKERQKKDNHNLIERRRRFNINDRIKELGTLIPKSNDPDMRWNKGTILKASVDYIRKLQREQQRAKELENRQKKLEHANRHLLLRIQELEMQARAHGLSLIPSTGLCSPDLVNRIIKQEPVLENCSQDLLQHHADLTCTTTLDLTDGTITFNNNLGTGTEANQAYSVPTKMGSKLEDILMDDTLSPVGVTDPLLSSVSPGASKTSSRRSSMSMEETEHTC

Beta-galactosidase = Beta-galactosidase (Escherichia coli, UniProt Q8VNN2); test: detection-enzyme interference by beta-gal modulators – biochemical, E. coli enzyme, set 3, artefact control for CCR6 antagonist project, dose response (AID 504712); assay type: functional
Chain of Beta-galactosidase (Q8VNN2 whole entry): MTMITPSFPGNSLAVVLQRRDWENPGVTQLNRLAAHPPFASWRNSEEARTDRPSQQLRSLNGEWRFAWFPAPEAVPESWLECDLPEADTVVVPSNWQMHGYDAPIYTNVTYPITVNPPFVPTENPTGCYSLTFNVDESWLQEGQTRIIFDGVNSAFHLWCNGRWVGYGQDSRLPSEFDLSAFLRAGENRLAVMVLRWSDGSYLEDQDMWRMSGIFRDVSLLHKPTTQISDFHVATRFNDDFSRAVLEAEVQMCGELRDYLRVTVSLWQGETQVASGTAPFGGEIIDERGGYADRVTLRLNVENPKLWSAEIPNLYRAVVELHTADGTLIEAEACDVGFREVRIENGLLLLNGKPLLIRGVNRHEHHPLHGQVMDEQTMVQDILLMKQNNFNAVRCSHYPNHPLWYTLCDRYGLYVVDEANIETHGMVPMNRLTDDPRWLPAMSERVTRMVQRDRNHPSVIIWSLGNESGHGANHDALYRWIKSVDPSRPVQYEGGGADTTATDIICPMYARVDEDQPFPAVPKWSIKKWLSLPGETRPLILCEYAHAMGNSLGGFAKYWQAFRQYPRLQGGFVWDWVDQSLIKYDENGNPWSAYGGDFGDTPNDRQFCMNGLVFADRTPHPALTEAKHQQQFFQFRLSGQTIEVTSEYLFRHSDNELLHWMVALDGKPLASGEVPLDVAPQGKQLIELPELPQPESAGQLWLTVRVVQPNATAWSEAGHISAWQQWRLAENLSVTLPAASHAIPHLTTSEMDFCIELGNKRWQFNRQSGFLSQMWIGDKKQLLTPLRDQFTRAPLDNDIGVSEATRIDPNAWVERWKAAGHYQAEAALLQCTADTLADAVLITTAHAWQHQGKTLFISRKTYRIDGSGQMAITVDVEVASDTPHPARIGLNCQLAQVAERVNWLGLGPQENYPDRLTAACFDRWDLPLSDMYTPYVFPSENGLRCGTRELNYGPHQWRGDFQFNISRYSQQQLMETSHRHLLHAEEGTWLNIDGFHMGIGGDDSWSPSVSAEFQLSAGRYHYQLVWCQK

cells = assay type: functional
Protein RecA = molecular target: T4, Protein RecA (Mycobacterium tuberculosis, UniProt P9WHJ3); test: Fluorescence Cell-Free Homogeneous Dose Retest to Identify Inhibitors of RecA-Intein Splicing Activity. [Related pubchem assays (depositor defined):AID2097, AID2223, AID489010, AID492950]; assay type: functional
T4 sequence (P9WHJ3 whole entry): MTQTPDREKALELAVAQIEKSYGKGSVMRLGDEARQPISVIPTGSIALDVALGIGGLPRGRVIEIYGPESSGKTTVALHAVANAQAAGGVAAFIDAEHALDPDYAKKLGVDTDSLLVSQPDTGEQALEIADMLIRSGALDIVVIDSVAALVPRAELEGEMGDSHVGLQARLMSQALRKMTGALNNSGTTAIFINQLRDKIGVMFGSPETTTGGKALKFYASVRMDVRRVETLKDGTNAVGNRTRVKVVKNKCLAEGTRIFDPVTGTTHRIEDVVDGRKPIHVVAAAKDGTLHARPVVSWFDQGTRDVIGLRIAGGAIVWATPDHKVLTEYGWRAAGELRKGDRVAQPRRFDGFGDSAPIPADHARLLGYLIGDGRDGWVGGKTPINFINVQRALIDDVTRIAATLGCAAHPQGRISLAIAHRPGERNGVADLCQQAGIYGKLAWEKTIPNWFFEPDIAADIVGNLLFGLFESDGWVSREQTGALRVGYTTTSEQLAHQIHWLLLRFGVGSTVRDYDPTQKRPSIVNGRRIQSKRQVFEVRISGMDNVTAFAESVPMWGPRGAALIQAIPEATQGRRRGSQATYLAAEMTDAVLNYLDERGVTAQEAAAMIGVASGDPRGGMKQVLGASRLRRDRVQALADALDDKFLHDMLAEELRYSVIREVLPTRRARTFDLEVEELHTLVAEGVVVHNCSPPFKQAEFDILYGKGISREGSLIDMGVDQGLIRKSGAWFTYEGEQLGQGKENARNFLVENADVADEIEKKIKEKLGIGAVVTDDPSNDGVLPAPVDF

[4] = molecular target: T5, Replicative DNA helicase DnaB (Mycobacterium tuberculosis, UniProt P9WMR3); test: DnaB intein splicing inhibitors, dose response, biochemical, cell-free fluorescence (AID 449749); assay type: functional
T5 sequence (P9WMR3 whole entry): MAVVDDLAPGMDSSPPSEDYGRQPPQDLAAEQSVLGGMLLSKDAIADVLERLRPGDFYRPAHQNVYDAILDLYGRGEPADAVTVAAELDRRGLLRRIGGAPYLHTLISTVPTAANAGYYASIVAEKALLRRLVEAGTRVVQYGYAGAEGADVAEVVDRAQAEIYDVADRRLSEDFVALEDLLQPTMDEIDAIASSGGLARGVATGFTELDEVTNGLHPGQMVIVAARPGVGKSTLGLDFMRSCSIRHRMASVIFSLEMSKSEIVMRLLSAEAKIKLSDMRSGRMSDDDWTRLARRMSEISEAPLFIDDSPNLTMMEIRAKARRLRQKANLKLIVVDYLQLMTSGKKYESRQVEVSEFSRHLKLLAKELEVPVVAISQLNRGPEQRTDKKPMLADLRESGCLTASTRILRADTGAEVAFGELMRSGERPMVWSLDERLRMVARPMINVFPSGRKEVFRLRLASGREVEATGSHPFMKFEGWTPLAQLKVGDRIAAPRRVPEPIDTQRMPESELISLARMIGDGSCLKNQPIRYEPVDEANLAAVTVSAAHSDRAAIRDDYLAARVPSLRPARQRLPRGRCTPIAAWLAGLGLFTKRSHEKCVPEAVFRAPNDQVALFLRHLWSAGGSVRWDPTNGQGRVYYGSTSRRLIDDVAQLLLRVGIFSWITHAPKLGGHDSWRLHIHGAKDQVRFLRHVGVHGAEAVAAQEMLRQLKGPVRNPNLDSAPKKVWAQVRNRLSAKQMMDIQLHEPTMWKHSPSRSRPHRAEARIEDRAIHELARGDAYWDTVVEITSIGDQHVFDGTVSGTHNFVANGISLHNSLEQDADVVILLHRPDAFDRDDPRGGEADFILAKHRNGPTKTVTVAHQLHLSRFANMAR

[5] = DRD fibroblast viability loss – cell-based, non-viral oncogenic, luminescence, dose response (AID 1934); assay type: functional; conditions: Homo sapiens
[6] = Vero E6 cell cytotoxicity, dose response, cytotoxicity control for non-replicating M. tuberculosis project, secondary assay (AID 492998); assay type: functional, VeroE6; conditions: Vero C1008
BJ [7] = test: BJ-TERT-LT-ST fibroblast viability loss – cell-based, RAS-independent, luminescence, dose response (AID 1935); assay type: functional; conditions: Homo sapiens;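 also: BJ fibroblasts immortalized with TERT plus LT and ST oncogenes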
[8] = HepG2 cell cytotoxicity, dose response, cytotoxicity control for non-replicating M. tuberculosis project (AID 489018); assay type: functional; conditions: Mycobacterium tuberculosis
[9] = Trypanosoma cruzi growth suppression in host cells – NIH3T3 host cells, beta-gal luminescence, confirmation (AID 2044); assay type: functional, cell-based;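 also: intracellular parasites grown in NIH/3T3 mouse fibroblasts as host cells; luminescent beta-galactosidase reporter signal from transgenic T. cruzi replicating inside host cells; inhibitors lower the luminescence signal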
[10] = molecular target: Heat shock protein HSP 90-alpha (Homo sapiens, UniProt P07900); assay type: functional, organism-based
BJ [11] = test: BJ-TERT fibroblast viability loss – cell-based, RAS-independent, luminescence, dose response (AID 1933); assay type: functional; conditions: Homo sapiens
BJ [12] = test: cells; assay type: functional, cell-based; conditions: Homo sapiens
[13] = NIH3T3 cell viability loss – ATP luminescence, mouse fibroblasts, counter-screen, dose response (AID 2010); assay type: functional, cell-based;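 also: cells exposed to compound for about 90 hours before reading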
Apelin receptor = Apelin receptor (Homo sapiens, UniProt P35414); test: apelin receptor antagonists, arrestin read-out – cell-based, luminescent, enzyme-fragment complementation, selectivity assay for CCR6 antagonist project, SAR follow-up (AID 588359); assay type: functional
Chain of Apelin receptor (P35414 whole entry, the tested form may be a part): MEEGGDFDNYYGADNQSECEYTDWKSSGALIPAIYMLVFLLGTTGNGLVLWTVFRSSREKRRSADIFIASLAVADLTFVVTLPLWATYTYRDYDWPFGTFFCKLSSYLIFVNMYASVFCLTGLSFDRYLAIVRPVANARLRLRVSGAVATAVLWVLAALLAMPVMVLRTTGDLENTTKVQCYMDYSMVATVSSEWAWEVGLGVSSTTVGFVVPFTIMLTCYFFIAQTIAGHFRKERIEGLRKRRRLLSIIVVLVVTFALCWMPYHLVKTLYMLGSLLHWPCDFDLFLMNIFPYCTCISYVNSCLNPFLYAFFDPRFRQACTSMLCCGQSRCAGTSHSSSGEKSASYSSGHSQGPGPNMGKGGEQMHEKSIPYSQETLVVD

[14] = THP-1 cell cytotoxicity, dose response, cytotoxicity control for non-replicating M. tuberculosis project (AID 489025); assay type: functional
[15] = molecular target: Beta-2 adrenergic receptor (Homo sapiens, UniProt P07550); test: ADRB2 activation measured by internalization – cell-based, FAP fluorogen, flow cytometry, cherry pick 1, dose response (AID 588763); assay type: functional
Chain of Beta-2 adrenergic receptor (P07550 whole entry): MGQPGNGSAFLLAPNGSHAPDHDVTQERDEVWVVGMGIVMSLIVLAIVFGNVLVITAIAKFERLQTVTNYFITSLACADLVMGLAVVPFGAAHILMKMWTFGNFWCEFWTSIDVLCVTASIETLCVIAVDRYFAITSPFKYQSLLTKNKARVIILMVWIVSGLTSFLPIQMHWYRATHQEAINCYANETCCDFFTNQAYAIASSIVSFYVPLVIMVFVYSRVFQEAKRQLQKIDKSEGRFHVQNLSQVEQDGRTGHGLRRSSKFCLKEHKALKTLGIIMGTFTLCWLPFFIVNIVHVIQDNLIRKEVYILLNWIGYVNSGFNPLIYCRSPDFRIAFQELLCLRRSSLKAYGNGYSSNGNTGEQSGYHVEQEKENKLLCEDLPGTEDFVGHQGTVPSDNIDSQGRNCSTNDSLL

Escherichia coli = test: microbe, parasite or virus in culture
[16] = molecular target: Sphingosine 1-phosphate receptor 1 (Homo sapiens, UniProt P21453); test: Late stage counterscreen assay for S1P4 antagonists: Fluorescence dose response cell-based screening assay for antagonists of the Sphingosine 1-Phosphate Receptor 1 (S1P1). [Related pubchem assays (depositor defined):AID1510, AID1524, AID1692, AID1853, AID2332, AID489009, AID489017]; assay type: functional
Chain of Sphingosine 1-phosphate receptor 1 (P21453 whole entry): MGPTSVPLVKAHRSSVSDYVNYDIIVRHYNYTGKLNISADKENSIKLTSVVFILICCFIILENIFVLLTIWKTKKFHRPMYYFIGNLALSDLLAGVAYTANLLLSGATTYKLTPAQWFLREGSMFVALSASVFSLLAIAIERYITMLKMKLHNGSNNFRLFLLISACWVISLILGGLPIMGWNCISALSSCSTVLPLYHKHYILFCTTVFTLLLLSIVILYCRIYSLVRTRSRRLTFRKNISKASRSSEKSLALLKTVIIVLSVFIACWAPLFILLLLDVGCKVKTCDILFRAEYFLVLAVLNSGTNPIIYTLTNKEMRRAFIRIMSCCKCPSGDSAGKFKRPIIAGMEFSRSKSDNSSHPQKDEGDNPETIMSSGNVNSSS

[17] = molecular target: Sphingosine 1-phosphate receptor 5 (Homo sapiens, UniProt Q9H228); test: Late stage counterscreen assay for S1P4 antagonists: Fluorescence dose response cell-based screening assay for antagonists of the Sphingosine 1-Phosphate Receptor 5 (S1P5). [Related pubchem assays (depositor defined):AID1510, AID1524, AID1692, AID1853, AID2332, AID489009, AID489017]; assay type: functional
Chain of Sphingosine 1-phosphate receptor 5 (Q9H228 whole entry): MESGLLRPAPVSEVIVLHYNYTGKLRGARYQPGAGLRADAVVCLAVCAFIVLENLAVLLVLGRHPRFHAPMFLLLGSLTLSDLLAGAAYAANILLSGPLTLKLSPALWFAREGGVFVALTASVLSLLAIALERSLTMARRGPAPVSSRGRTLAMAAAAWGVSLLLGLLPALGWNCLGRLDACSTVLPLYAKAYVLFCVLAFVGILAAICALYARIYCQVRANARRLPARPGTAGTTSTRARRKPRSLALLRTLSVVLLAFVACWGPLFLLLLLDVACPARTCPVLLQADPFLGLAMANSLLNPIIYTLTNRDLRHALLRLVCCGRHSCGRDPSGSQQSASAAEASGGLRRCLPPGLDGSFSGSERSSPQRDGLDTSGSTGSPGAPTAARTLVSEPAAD

[18] = molecular target: Sphingosine 1-phosphate receptor 2 (Homo sapiens, UniProt O95136); test: Late stage counterscreen assay for S1P4 antagonists: Fluorescence dose response cell-based screening assay for antagonists of the Sphingosine 1-Phosphate Receptor 2 (S1P2). [Related pubchem assays (depositor defined):AID1510, AID1524, AID1692, AID1853, AID2332, AID489009, AID489017]; assay type: functional
Chain of Sphingosine 1-phosphate receptor 2 (O95136 whole entry): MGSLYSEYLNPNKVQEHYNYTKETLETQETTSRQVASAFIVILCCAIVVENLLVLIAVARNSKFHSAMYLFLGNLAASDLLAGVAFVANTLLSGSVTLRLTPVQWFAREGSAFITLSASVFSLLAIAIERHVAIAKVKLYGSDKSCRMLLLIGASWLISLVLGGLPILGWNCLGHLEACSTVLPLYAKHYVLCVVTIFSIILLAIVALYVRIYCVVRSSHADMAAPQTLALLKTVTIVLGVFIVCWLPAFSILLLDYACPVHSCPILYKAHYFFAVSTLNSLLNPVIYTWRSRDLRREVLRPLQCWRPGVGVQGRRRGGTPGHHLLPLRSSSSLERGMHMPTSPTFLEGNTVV

[19] = molecular target: Sphingosine 1-phosphate receptor 3 (Homo sapiens, UniProt Q99500); test: Late stage counterscreen assay for S1P4 antagonists: Fluorescence dose response cell-based screening assay for antagonists of the Sphingosine 1-Phosphate Receptor 3 (S1P3). [Related pubchem assays (depositor defined):AID1510, AID1524, AID1692, AID1853, AID2332, AID489009, AID489017]; assay type: functional
Chain of Sphingosine 1-phosphate receptor 3 (Q99500 whole entry): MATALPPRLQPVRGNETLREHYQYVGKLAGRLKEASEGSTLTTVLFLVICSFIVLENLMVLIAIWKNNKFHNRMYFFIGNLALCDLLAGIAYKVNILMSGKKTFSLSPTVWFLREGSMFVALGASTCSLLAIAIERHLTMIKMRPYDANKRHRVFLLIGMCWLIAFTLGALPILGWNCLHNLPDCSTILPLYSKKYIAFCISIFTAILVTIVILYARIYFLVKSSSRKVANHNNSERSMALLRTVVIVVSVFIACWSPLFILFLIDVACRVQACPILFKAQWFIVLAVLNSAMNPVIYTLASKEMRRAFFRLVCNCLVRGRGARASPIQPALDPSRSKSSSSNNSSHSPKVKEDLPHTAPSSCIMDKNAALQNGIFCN

Trypanosoma cruzi = test: anti-trypanosomal activity in host cells – cell-based, plate reader, dry powder, set 3, dose response (AID 493197); assay type: functional
[20] = NIH/3T3 cell viability loss – mouse embryonic fibroblasts, dry powder, set 2, cytotoxicity control, dose response (AID 493247); assay type: functional, cell-based; conditions: Fibroblast
[21] = T. cruzi infection blockers in NIH3T3 cells – beta-gal luminescence, NIH3T3 host cells, confirmation (AID 2630); assay type: functional, cell-based; conditions: Mus musculus
[22] = molecular target: Dual specificity protein phosphatase 3 (Homo sapiens, UniProt P51452); test: SAR VHR1 Fluorescent Assay for In Vitro dose response studies Set 3. [Related pubchem assays (depositor defined):AID1654, AID1661, AID1878]; assay type: functional
Chain of Dual specificity protein phosphatase 3 (P51452 whole entry): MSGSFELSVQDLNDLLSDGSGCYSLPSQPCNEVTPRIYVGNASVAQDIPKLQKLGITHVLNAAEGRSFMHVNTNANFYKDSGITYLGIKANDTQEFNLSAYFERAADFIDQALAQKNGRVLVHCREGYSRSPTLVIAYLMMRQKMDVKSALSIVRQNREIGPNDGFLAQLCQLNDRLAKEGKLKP

## CN1CCC(N(C)C(=O)/C=C/c2cn(-c3ccccc3)nc2-c2cccs2)CC1
[1]
  IC50: > 20 µM (inactive)
A-375
  AC50: 30.5 µM (active)
[2]
  AC50: 12.2 µM (active)
[3]
  AC50: 9.82 µM (active)

## O=[N+]([O-])c1ccc(S(=O)(=O)c2cccc(C(F)(F)F)c2)nc1
Beta-galactosidase
  IC50: > 66.6 µM (inactive)
cells
  IC50: 3.47 µM (active)
Protein RecA
  EC50: 14.2 µM (active)
[4]
  AC50: > 380 µM (inactive)
[5]
  EC50: 6.52 µM (active)
[6]
  CC50: 14.8 µM (active)
BJ [7]
  EC50: 10.8 µM (inconclusive)
[8]
  CC50: > 20 µM (active)
[9]
  EC50: 0.913 µM (active)
[10]
  AC50: 1.84 µM (active)
BJ [11]
  EC50: 2.55 µM (inconclusive)
BJ [12]
  EC50: 12.1 µM (inconclusive)
[13]
  EC50: 2.06 µM (active)
Apelin receptor
  IC50: 18.8 µM (active)
[14]
  CC50: 28.8 µM (active)
[15]
  EC50: 7.62 µM (inactive)

## COC(=O)c1cnc(NNS(=O)(=O)c2ccc(C(F)(F)F)cc2)nc1C(F)(F)F
Escherichia coli
  AC50: > 380 µM (inactive)

## Cc1cccc(Cl)c1NC(=O)c1ccc(-c2cc(Cl)ccc2Cl)o1
[16]
  IC50: > 25 µM (inactive)
[17]
  IC50: > 25 µM (inactive)
[18]
  IC50: 9.5 µM (active)
[19]
  IC50: > 25 µM (inactive)

## CN(Cc1ccccc1)C(=O)C1CCCN(Cc2ccccc2C(F)(F)F)C1 (centres undefined)
Trypanosoma cruzi
  AC50: 15.9 µM (active)
[20]
  AC50: 63.3 µM (active)
[21]
  EC50: 4.64 µM (active)

## CCOc1cccc2sc(NC(=O)c3ccc(OC)cc3)nc12
[22]
  IC50: 51.7 µM (active)
